Results published in ChEMBL document CHEMBL5291721, “A preclinical secondary pharmacology resource illuminates target-adverse drug reaction associations of marketed drugs” (Nat Commun, 2023).

Legend:
[1] = molecular target: T1, Corticotropin-releasing factor receptor 2 (Homo sapiens, UniProt Q13324)
T1 sequence (Q13324 whole entry): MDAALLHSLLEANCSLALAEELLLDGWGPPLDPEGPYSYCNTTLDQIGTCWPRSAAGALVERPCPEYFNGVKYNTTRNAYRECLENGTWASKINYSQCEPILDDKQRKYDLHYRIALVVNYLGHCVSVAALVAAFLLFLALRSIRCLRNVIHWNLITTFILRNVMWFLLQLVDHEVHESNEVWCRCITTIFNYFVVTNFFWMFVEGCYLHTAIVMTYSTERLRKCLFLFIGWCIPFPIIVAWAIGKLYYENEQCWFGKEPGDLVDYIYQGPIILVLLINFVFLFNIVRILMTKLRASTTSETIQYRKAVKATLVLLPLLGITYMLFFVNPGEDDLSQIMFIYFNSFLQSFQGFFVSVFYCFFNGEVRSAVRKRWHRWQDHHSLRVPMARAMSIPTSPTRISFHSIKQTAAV

D(4) dopamine receptor = molecular target: T2, D(4) dopamine receptor (Homo sapiens, UniProt P21917)
T2 sequence (P21917 whole entry): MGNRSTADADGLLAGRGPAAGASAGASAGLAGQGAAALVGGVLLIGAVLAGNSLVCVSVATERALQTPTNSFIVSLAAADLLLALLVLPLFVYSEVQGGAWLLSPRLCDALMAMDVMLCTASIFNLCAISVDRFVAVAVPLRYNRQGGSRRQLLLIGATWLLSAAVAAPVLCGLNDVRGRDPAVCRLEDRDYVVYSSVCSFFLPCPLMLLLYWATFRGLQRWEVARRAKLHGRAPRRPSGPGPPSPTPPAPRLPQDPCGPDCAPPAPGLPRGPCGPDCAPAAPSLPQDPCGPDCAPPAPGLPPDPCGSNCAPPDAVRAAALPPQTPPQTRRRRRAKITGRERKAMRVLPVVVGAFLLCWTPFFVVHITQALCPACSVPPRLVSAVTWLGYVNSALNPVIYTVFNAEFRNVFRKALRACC

Estrogen receptor beta = Estrogen receptor beta (Homo sapiens, UniProt Q92731)
Estrogen receptor beta, sequence (Q92731 whole entry): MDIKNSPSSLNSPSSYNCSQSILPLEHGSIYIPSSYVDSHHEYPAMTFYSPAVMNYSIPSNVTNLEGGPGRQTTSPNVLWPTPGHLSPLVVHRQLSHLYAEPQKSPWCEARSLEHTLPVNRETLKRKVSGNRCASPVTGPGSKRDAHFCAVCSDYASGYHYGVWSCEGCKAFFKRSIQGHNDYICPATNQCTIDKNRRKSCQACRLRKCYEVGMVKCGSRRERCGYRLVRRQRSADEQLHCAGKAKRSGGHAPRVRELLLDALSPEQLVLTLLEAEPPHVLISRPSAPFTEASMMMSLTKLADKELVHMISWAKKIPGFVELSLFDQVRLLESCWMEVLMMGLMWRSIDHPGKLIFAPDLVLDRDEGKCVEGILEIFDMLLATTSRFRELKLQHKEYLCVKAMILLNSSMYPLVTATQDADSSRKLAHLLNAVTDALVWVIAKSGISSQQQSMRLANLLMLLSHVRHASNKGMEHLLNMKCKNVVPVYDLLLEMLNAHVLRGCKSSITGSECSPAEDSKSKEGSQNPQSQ

[2] = molecular target: 5-hydroxytryptamine receptor 2B (Homo sapiens, UniProt P41595)
5-hydroxytryptamine receptor 2B, sequence (P41595 whole entry): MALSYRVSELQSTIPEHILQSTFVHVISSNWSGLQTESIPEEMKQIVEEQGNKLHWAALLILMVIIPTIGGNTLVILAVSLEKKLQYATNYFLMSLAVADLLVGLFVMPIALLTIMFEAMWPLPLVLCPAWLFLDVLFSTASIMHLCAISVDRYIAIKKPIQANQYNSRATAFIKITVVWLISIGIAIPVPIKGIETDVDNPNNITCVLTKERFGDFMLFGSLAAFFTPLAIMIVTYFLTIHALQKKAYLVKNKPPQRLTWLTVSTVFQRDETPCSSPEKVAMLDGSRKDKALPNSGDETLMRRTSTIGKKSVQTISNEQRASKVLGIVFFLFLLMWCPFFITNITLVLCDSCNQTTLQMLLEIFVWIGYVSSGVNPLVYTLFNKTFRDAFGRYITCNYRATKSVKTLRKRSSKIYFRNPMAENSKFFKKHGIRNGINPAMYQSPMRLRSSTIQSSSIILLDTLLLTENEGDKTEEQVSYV

[3] = molecular target: Gamma-aminobutyric acid receptor subunit alpha-1 (Rattus norvegicus, UniProt P62813)
Gamma-aminobutyric acid receptor subunit alpha-1, sequence (P62813 whole entry): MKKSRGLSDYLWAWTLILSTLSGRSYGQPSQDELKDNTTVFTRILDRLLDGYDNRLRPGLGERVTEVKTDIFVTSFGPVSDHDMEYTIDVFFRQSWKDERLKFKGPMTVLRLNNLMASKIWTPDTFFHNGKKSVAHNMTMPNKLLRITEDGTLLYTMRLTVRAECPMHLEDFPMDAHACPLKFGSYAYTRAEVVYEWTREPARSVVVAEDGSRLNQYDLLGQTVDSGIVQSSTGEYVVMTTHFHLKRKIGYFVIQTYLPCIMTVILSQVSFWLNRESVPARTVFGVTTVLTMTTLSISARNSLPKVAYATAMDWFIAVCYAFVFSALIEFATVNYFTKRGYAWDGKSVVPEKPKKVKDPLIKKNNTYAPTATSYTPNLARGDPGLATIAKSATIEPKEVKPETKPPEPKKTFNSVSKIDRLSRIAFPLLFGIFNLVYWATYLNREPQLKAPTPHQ

[4] = molecular target: T3, Gamma-aminobutyric acid receptor subunit alpha-1/alpha-2/beta-2/gamma-2 (Homo sapiens, UniProt P14867+P18507+P47869+P47870); type: functional, cell-based
T3 sequence (P14867 whole entry): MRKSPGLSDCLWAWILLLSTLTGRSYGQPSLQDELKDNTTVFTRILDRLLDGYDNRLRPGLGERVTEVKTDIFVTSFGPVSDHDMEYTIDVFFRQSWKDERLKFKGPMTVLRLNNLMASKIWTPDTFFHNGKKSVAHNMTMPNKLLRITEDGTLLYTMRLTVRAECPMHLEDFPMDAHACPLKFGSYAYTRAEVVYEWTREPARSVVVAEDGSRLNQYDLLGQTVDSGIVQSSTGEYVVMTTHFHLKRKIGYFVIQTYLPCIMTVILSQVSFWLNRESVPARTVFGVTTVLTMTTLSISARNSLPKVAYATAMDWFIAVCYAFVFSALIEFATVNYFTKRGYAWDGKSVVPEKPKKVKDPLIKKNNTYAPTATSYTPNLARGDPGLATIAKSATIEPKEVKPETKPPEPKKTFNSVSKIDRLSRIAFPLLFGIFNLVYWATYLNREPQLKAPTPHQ
T3 sequence (P47870 whole entry): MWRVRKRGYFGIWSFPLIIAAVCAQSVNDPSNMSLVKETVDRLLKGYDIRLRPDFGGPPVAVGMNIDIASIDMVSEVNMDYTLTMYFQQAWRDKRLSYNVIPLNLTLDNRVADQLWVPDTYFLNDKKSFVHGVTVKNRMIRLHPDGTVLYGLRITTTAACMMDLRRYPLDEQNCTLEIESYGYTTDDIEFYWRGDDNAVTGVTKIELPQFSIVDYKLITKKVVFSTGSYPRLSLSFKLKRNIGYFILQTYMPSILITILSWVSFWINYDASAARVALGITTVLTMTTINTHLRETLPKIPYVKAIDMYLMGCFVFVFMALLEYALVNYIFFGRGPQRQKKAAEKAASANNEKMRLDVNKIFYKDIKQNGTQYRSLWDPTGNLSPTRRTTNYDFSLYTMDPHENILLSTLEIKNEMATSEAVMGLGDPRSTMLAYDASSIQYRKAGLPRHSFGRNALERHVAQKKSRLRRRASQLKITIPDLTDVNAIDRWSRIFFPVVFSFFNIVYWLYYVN
T3 sequence (P18507 whole entry): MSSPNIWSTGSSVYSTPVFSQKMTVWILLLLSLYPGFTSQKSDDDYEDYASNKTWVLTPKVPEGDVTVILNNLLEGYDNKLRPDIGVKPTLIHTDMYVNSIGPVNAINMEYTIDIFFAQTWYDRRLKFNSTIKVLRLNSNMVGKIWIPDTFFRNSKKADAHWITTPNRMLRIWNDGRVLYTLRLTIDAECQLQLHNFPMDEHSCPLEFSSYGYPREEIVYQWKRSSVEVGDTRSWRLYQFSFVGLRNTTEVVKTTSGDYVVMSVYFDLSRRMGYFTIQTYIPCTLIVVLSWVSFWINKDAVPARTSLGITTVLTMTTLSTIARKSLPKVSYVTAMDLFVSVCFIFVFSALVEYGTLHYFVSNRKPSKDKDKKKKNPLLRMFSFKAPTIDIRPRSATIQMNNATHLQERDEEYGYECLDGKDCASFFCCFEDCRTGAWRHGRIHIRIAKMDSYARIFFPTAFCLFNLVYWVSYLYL
T3 sequence (P47869 whole entry): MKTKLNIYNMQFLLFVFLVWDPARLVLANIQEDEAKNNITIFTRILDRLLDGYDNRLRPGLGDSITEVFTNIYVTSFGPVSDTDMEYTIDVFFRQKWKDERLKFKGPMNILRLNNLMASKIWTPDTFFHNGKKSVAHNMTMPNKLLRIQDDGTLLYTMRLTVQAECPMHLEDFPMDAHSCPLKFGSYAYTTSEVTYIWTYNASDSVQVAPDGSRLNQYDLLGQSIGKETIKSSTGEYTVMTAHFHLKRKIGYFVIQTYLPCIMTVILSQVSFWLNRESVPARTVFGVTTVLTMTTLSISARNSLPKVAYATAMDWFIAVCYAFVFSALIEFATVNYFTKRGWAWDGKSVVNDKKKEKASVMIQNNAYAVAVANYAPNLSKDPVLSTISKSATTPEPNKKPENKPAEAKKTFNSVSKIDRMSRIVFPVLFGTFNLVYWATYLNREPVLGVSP

Progesterone receptor = molecular target: T4, Progesterone receptor (Homo sapiens, UniProt P06401); type: functional
T4 sequence (P06401 whole entry): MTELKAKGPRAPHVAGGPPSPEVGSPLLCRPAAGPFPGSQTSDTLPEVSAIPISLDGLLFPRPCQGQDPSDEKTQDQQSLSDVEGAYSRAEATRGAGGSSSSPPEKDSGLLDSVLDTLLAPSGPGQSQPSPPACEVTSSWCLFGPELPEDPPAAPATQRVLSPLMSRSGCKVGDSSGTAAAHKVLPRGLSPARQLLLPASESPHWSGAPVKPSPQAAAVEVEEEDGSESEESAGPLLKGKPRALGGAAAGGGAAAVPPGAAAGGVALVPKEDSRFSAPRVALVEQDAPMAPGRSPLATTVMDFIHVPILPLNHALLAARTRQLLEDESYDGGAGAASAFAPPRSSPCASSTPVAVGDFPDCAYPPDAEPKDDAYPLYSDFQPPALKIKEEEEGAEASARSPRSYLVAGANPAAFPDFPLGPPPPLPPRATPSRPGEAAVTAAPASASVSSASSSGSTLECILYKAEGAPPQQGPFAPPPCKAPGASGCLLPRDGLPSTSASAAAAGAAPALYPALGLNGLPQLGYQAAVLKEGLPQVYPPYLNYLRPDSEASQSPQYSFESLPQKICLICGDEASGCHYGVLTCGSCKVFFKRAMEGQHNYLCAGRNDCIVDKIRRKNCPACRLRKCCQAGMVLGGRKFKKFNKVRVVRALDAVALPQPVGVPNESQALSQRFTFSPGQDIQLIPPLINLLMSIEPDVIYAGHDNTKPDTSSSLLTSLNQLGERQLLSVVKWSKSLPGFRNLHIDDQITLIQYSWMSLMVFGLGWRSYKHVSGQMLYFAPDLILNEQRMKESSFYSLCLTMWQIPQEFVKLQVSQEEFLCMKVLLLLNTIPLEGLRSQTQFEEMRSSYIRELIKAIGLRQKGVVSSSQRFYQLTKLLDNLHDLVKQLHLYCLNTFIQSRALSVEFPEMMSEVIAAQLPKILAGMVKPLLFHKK

[5] = molecular target: T3, Gamma-aminobutyric acid receptor subunit alpha-1/alpha-2/beta-2/gamma-2; type: protein-complex assay
[6] = molecular target: T5, Muscarinic acetylcholine receptor M1 (Homo sapiens, UniProt P11229); type: functional, cell-based
T5 sequence (P11229 whole entry): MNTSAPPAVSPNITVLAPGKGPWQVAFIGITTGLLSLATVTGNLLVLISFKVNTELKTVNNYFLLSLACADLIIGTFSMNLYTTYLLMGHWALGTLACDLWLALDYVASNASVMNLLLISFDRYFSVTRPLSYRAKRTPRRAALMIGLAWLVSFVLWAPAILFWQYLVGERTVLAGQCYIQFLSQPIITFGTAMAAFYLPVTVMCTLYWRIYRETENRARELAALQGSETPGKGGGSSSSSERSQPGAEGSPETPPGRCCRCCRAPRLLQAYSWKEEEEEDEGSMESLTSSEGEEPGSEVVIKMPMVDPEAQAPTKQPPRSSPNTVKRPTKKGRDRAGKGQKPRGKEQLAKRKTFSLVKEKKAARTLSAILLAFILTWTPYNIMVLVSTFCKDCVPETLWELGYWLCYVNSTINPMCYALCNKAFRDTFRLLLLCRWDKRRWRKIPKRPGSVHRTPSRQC
Note: assay procedure not described here.

Row | Structure (SMILES) | AC50 [1] | AC50 (D(4) dopamine receptor) | AC50 (Estrogen receptor beta) | AC50 [2] | AC50 [3] | AC50 [4] | AC50 (Progesterone receptor) | AC50 [5] | AC50 [6]
1 | CCN(CC)CCNC(=O)c1cc(Cl)c(N)cc1OC [METOCLOPRAMIDE] | > 30 µM | 1.16 µM | > 30 µM | 0.314 µM |  |  |  |  | 
2 | CCOC(=O)[C@H](CCc1ccccc1)N[C@@H](C)C(=O)N1CCC[C@H]1C(=O)O | > 30 µM | > 10 µM |  | > 10 µM |  |  |  |  | 
3 | CCc1ccc(CCOc2ccc(CC3SC(=O)NC3=O)cc2)nc1 (stereo not drawn) [PIOGLITAZONE] | > 30 µM | > 10 µM | > 30 µM | > 10 µM | > 30 µM |  |  |  | 
4 | NC(N)=Nc1nc(CSCCC(N)=NS(N)(=O)=O)cs1 [FAMOTIDINE] | > 30 µM | > 10 µM |  | > 10 µM |  |  |  |  | 
5 | CC(N)Cc1ccccc1 (stereo not drawn) [AMPHETAMINE] | > 30 µM |  | > 30 µM |  |  | > 30 µM | > 30 µM |  | 
6 | CCc1nn(CCCN2CCN(c3cccc(Cl)c3)CC2)c(=O)n1CCOc1ccccc1 [NEFAZODONE] | > 30 µM | 0.271 µM | > 30 µM | 0.084 µM |  |  |  |  | 
7 | CCC[C@@H]1C[C@@H](C(=O)N[C@@H]([C@H]2O[C@H](SC)[C@H](O)[C@@H](O)[C@H]2O)[C@H](C)Cl)N(C)C1 [CLINDAMYCIN] | > 30 µM | > 10 µM | > 30 µM | > 10 µM |  |  |  |  | 
8 | NS(=O)(=O)c1cc2c(cc1Cl)NCNS2(=O)=O [HYDROCHLOROTHIAZIDE] | > 30 µM | > 10 µM | > 30 µM | 6.91 µM |  |  |  |  | 
9 | NC(=O)c1cnccn1 [PYRAZINAMIDE] | > 30 µM | > 10 µM | > 30 µM | > 10 µM |  |  | > 30 µM | > 30 µM | 
10 | CC(C(=O)O)c1ccc(N2CC=CC2)c(Cl)c1 (stereo not drawn) [PIRPROFEN] | > 30 µM | > 10 µM | > 30 µM | > 10 µM |  |  |  | > 30 µM | > 30 µM
11 | COC(=O)[C@@H]1CC2=CC(=O)CC[C@]2(C)[C@@]23O[C@@H]2C[C@@]2(C)[C@@H](CC[C@@]24CCC(=O)O4)[C@H]13 [EPLERENONE] | > 30 µM |  |  | > 10 µM |  | > 30 µM |  |  | 
12 | O=C(CCCCCCC(=O)Nc1ccccc1)NO [VORINOSTAT] |  | > 10 µM |  | > 10 µM |  | > 30 µM | > 30 µM |  | 
13 | CN(CCOc1ccc(NS(C)(=O)=O)cc1)CCc1ccc(NS(C)(=O)=O)cc1 [DOFETILIDE] | > 30 µM | > 10 µM |  | > 10 µM |  |  |  | > 30 µM | > 30 µM
14 | CC(C)NCC(O)COc1ccc(COCCOC(C)C)cc1 (stereo not drawn) [BISOPROLOL] | > 30 µM | > 10 µM | > 30 µM | > 10 µM |  |  |  |  | 
15 | COc1cc(Nc2c(C#N)cnc3cc(OCCCN4CCN(C)CC4)c(OC)cc23)c(Cl)cc1Cl [BOSUTINIB] | > 30 µM | > 10 µM | > 30 µM |  | > 30 µM |  |  |  | > 10 µM
16 | C#C[C@]1(O)CC[C@H]2[C@@H]3CCc4cc(O)ccc4[C@H]3CC[C@@]21C [ETHINYL ESTRADIOL] | > 30 µM | > 10 µM |  | > 30 µM | > 30 µM |  |  |  | 
17 | Nc1nc(N)c2nc(-c3ccccc3)c(N)nc2n1 | > 30 µM | > 10 µM | > 30 µM | > 10 µM |  |  |  | > 30 µM | 
18 | Oc1ncnc2[nH]ncc12 [ALLOPURINOL] | > 30 µM | > 10 µM | > 30 µM | > 10 µM |  |  |  | > 30 µM | 
19 | C[C@H]1O[C@H](O[C@H]2[C@H](O)[C@@H](O)[C@@H](O[C@H]3[C@H](O)[C@@H](O)C(O)O[C@@H]3CO)O[C@@H]2CO)[C@H](O)[C@@H](O)[C@@H]1N[C@H]1C=C(CO)[C@@H](O)[C@H](O)[C@H]1O (stereo partly drawn) [ACARBOSE] | > 30 µM | > 10 µM | > 30 µM | > 10 µM | > 30 µM |  | > 30 µM |  | 
20 | COc1cc2c(cc1OC)C(=O)C(CC1CCN(Cc3ccccc3)CC1)C2 (stereo not drawn) [DONEPEZIL] | > 30 µM | 0.824 µM | > 30 µM |  |  |  |  | > 30 µM | > 30 µM
21 | O=C(NC[C@H]1CN(c2ccc(N3CCOCC3=O)cc2)C(=O)O1)c1ccc(Cl)s1 [RIVAROXABAN] |  |  |  |  | > 30 µM | > 30 µM | > 30 µM |  | > 30 µM
